# Source: US11471442B2, “Administration of gut-selective JAK3 inhibitor” (THERAVANCE BIOPHARMA R&D IP, LLC, priority 2020, dated 2022)
# Key:
# [1] = Phase 1 single ascending dose (SAD, Part A) safety and tolerability in healthy subjects; format: in vivo, human; conditions: for Most frequent TEAEs: Apthous ulcer / Most frequent TEAEs: Back pain / Most frequent TEAEs: Diarrhea / Most frequent TEAEs: Headache / Most frequent TEAEs: Pain in extremity / Subjects with TEAEs: Any TEAE / Subjects with TEAEs: Moderate or severe TEAE / Subjects with TEAEs: Seriou TEAE / Subjects with TEAEs: TEAE leading to discontinuation / Total number of TEAEs: SAD, n = 6
# Source text: This clinical study was the first in human study of a compound of formula (I). The purpose of this study was to assess the safety, tolerability and pharmacokinetics (PK) of the compound of formula (I) through single ascending dose administration (Part A) and multiple dose administrations (Part B) in healthy subjects.
# The number and severity of treatment emergent adverse events (TEAE5) following single (Part A) or multiple (Parts B) oral doses of the compound of formula (I) and matching placebo, and changes in safety laboratory assessments, vital signs, and ECGs.
# 32 healthy, adult male and female subjects were enrolled in Part A. Four cohorts (A1 to A4) of 8 healthy subjects (6 active and 2 placebo) were evaluated.
# In each cohort, healthy subjects meeting eligibility criteria were sequentially randomized in a 3:1 ratio to receive either the compound of formula (I) or matching placebo. Study drug was administered orally as a single dose on the morning of Day 1 following an overnight fast of at least 9.5 hours. Subjects were dosed in an upright (i.e., seated or standing) position and remained upright for 5 minutes following dosing prior to performing study procedures which require a posture change. Subjects were to remain fasted, except water, until after the 4-hour post-dose assessments were completed and the 4-hour post dose PK sample was collected. PK sampling for the compound of formula (I) in plasma and urine were taken Day 1 pre-dose and for 72 hours post-dose.
# Safety was determined by evaluating physical examinations, vital signs, safety 12-lead electrocardiograms (ECGs) monitoring, clinical laboratory tests, and adverse events (AEs). For procedures scheduled to be performed at common times, collection of PK samples was collected as close as possible to the designated time. The cardiodynamic recordings via ECG extractions from the Holter monitor were conducted as close as possible prior to the corresponding PK sampling. Vital signs, followed by safety ECGs, were be taken before the PK sampling (or before the cardiodynamic sampling if scheduled at the same time), unless PK samples were late as a result in which case vital signs were taken following the PK sampling.
# Safety analyses were performed using the Safety analysis set. Safety variables include vital signs, adverse events, clinical laboratory results (hematology, chemistry, coagulation, and urinalysis), and ECG parameters, such as Friderica's corrected QT interval (QTcF), PR interval, QT interval, QRS interval, and heart rate, from standard safety digital ECGs. Vital signs were summarized in terms of observed values and changes from baseline.
# IL-2 induced pSTAT5 = test: Murine model of IL-2 induced pSTAT5 induction in the thymus; format: in vivo
# NK cells = test: NK cell counts (immunophenotyping) in MAD cohorts; format: in vivo, human; conditions: day 1 to day 10, MAD
# Procedure: Immunophenotyping was conducted on NK Cells in part B only.
# JAK3 = target: T1, JAK3 (Homo sapiens, UniProt P52333); test: Co-crystal structure with human JAK3; format: binding
# T1 sequence (P52333 1-1124): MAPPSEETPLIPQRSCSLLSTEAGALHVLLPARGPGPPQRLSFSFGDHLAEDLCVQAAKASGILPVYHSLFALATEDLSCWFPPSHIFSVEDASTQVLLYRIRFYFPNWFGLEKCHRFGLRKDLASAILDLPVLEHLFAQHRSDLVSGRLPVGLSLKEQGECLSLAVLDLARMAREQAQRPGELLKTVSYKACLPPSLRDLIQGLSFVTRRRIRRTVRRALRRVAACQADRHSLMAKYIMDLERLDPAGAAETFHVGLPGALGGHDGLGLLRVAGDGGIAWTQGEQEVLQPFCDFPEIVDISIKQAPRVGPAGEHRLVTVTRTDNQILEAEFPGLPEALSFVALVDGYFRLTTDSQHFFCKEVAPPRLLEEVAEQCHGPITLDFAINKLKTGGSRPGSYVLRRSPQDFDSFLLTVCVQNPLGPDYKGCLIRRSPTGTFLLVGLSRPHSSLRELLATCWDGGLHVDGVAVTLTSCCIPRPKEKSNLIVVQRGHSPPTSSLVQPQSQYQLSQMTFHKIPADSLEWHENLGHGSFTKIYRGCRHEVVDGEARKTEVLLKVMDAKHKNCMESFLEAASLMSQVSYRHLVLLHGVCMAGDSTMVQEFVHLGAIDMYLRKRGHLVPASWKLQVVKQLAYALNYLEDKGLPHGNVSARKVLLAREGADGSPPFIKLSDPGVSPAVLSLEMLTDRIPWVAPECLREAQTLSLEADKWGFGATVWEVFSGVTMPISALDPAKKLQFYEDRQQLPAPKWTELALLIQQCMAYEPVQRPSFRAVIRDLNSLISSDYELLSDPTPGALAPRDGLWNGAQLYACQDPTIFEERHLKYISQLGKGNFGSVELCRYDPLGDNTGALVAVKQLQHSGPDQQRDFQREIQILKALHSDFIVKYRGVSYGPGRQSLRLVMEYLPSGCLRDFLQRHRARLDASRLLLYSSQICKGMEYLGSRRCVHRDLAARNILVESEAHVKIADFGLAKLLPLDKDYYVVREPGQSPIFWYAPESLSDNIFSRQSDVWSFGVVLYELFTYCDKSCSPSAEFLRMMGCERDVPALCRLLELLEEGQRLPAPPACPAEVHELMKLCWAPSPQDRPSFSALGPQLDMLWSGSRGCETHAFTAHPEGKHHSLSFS
# Source text: Such covalent binding to JAK3 could be beneficial by providing an extended target engagement which may translate in better efficacy.
smiles,measurement,setting,value
CN(C)C/C=C/C(=O)N1CC(COc2cc(-c3ccc(O)cc3)cc3[nH]ncc23)C1 [compound of formula (I)],serious AEs,[1]; SAD cohorts,No serious AEs
same,severity of reported treatment-emergent AEs,[1]; SAD cohorts,mild
same,"AEs considered related to study drug (diarrhea, abdominal discomfort, and vomiting)","[1]; SAD cohorts, 2000 mg",Three
same,"changes from predose baseline in laboratory assessments (lipid, coagulation, hematology), vital signs or ECGs","[1]; SAD cohorts, any time point postdose",No clinically significant changes
same,Most frequent TEAEs: Apthous ulcer,[1]; single oral dose 100 mg,1 (17)
same,Most frequent TEAEs: Back pain,[1]; single oral dose 100 mg,1 (17)
same,Most frequent TEAEs: Diarrhea,[1]; single oral dose 100 mg,0
same,Most frequent TEAEs: Headache,[1]; single oral dose 100 mg,1 (17)
same,Most frequent TEAEs: Pain in extremity,[1]; single oral dose 100 mg,3 (50)
same,Subjects with TEAEs: Any TEAE,[1]; single oral dose 100 mg,4 (67)
same,Subjects with TEAEs: Moderate or severe TEAE,[1]; single oral dose 100 mg,0
same,Subjects with TEAEs: Seriou TEAE,[1]; single oral dose 100 mg,0
same,Subjects with TEAEs: TEAE leading to discontinuation,[1]; single oral dose 100 mg,0
same,Total number of TEAEs,[1]; single oral dose 100 mg,8
same,Most frequent TEAEs: Apthous ulcer,[1]; single oral dose 300 mg,0
same,Most frequent TEAEs: Back pain,[1]; single oral dose 300 mg,0
same,Most frequent TEAEs: Diarrhea,[1]; single oral dose 300 mg,0
same,Most frequent TEAEs: Headache,[1]; single oral dose 300 mg,0
same,Most frequent TEAEs: Pain in extremity,[1]; single oral dose 300 mg,1 (17)
same,Subjects with TEAEs: Any TEAE,[1]; single oral dose 300 mg,2 (33)
same,Subjects with TEAEs: Moderate or severe TEAE,[1]; single oral dose 300 mg,0
same,Subjects with TEAEs: Seriou TEAE,[1]; single oral dose 300 mg,0
same,Subjects with TEAEs: TEAE leading to discontinuation,[1]; single oral dose 300 mg,0
same,Total number of TEAEs,[1]; single oral dose 300 mg,2
same,Most frequent TEAEs: Apthous ulcer,[1]; single oral dose 1000 mg,0
same,Most frequent TEAEs: Back pain,[1]; single oral dose 1000 mg,1 (17)
same,Most frequent TEAEs: Diarrhea,[1]; single oral dose 1000 mg,1 (17)
same,Most frequent TEAEs: Headache,[1]; single oral dose 1000 mg,0
same,Most frequent TEAEs: Pain in extremity,[1]; single oral dose 1000 mg,0
same,Subjects with TEAEs: Any TEAE,[1]; single oral dose 1000 mg,2 (33)
same,Subjects with TEAEs: Moderate or severe TEAE,[1]; single oral dose 1000 mg,0
same,Subjects with TEAEs: Seriou TEAE,[1]; single oral dose 1000 mg,0
same,Subjects with TEAEs: TEAE leading to discontinuation,[1]; single oral dose 1000 mg,0
same,Total number of TEAEs,[1]; single oral dose 1000 mg,6
same,Most frequent TEAEs: Apthous ulcer,[1]; single oral dose 2000 mg,1 (17)
same,Most frequent TEAEs: Back pain,[1]; single oral dose 2000 mg,0
same,Most frequent TEAEs: Diarrhea,[1]; single oral dose 2000 mg,1 (17)
same,Most frequent TEAEs: Headache,[1]; single oral dose 2000 mg,1 (17)
same,Most frequent TEAEs: Pain in extremity,[1]; single oral dose 2000 mg,0
same,Subjects with TEAEs: Any TEAE,[1]; single oral dose 2000 mg,3 (50)
same,Subjects with TEAEs: Moderate or severe TEAE,[1]; single oral dose 2000 mg,0
same,Subjects with TEAEs: Seriou TEAE,[1]; single oral dose 2000 mg,0
same,Subjects with TEAEs: TEAE leading to discontinuation,[1]; single oral dose 2000 mg,0
same,Total number of TEAEs,[1]; single oral dose 2000 mg,6
same,tolerability,[1]; single dose up to 2000 mg,generally well-tolerated
same,systemic activity (IL-2 induced pSTAT5 induction in the thymus),IL-2 induced pSTAT5,lack of systemic activity
same,changes in absolute or relative NK cell counts,NK cells,no apparent changes
same,"binding nature to JAK3 (co-crystal structure, covalent bond with Cys909)",JAK3,irreversible binding
